Reference: patent publication US20250195629A1, “SITE-SPECIFIC BRAIN THERAPEUTICS” (William Marsh Rice University, priority 2023, published 2025)

B1: AADC-IKVAV: aromatic-L-amino-acid decarboxylase (AADC) protein fused with short peptide IKVAV (SEQ ID NO: 23); CDS SEQ ID NO: 21 (protein)
chain: MRGSHHHHHHGMASMTGGQQMGRDLYDDDDKDPMNASEFRRRGKEMVDYMANYMEGIEGRQVYPDVEPGYLRPLIPAAAPQEPDTFEDIINDVEKIIMPGVTHWHSPYFFAYFPTASSYPAMLADMLCGAIGCIGFSWAASPACTELETVMMDWLGKMLELPKAFLNEKAGEGGGVIQGSASEATLVALLAARTKVIHRLQAASPELTQAAIMEKLVAYSSDQAHSSVERAGLIGGVKLKAIPSDGNFAMRASALQEALERDKAAGLIPFFMVATLGTTTCCSFDNLLEVGPICNKEDIWLHVDAAYAGSAFICPEFRHLLNGVEFADSFNFNPHKWLLVNFDCSAMWVKKRTDLTGAFRLDPTYLKHSHQDSGLITDYRHWQIPLGRRFRSLKMWFVFRMYGVKGLQAYIRKHVQLSHEFESLVRQDPRFEICVEVILGLVCFRLKGSNKVNEALLQRINSAKKIHLVPCHLRDKFVLRFAICSRTVESAHVQRAWEHIKELAADVLRAEREGGSGSSGGSGGSGGSGIKVAV
modifications: misc_feature 1..1602 Synthetic: AADC-IKVAV

Columns and labels:
Assay type in all cases: in vivo, mouse
[1] = test system: mice; experiment: Weekly repeated RAID open field test over three weeks
Source text: FIG. 15 includes data related to protein delivery and behavioral testing protocol repeated weekly over a course of three weeks. FIG. 15a illustrates weekly RAID-induced behavioral modulation including a first counterclockwise rotations graph measured in the open field test before and after administration of L-DOPA. FIG. 15b illustrates weekly RAID-induced behavioral modulation including a second counterclockwise rotations graph measured in the open field test before and after administration of L-DOPA. FIG. 15c illustrates weekly RAID-induced behavioral modulation including a first clockwise rotations graph measured in the open field test before and after administration of L-DOPA. FIG. 15d illustrates weekly RAID-induced behavioral modulation including a second clockwise rotations graph measured in the open field test before and after administration of L-DOPA. Data is presented as mean±s.e.m. n=7 mice for FUS alone group and n=14, 13, and 11 mice for the FUS+mAADC-IKVAV (SEQ ID NO: 23) group in weeks 1, 2, and 3, respectively; *P<0.05, **P<0.01, ns (not significant), using Two-way ANOVA with Sidak's multiple comparison test.
Locomotor behavior test—Two groups of mice underwent FUS-BBBO targeting two sites at left striatum immediately after intravenous injection of recombinant protein AADC-IKVAV (SEQ ID NO: 23) (n=14 mice for FUS+AADC-IKVAV group, 20 mg/mL, 250 mg/kg) or equivalent volume of PBS buffer (n=11 mice for FUS alone group). Another group without FUS-BBBO procedure served as wild type control (n=12 mice for WT group). After 46 h, the first session of behavioral test was performed in a custom-made non-transparent open field box (30.5 cm×30.5 cm) as a baseline. Each mouse was individually placed into the apparatus center with a light intensity and background noise at ˜320 lux and 46 dB (400 Hz peak), respectively. After a habituation period of 5 min, the locomotor activity of a freely-moving mouse was recorded for 15 min by a video tracking system (Stoelting Co.) consisting of an overhead camera connected to a computer with Any-Maze software. […]

[2] = test system: GFAP+ astrocytes; experiment: Safety analysis, GFAP staining for astrocytic activation; details: RAID treatment, FUS+AADC-IKVAV
Source text: Additionally, the brain sections stained for GFAP were imaged using a 4× objective in DAPI (nuclei) and far-red (GFAP) channels. Three square areas were then selected in both the left and right striatum respectively, each with 3×3 binning, for imaging with a 40× objective to quantify GFAP+ cells.
In FIG. 7, we applied the following brightness (white) thresholds for the corresponding channels: 6045 (DAPI, nuclei, not shown), 15,000 (Cy3, D1R), 16,000 (green, D2R), and 6045 (far-red, c-Fos), with a gamma value of 1. In FIG. 11, we applied a Brightness (White) threshold of 6045 for both DAPI (nuclei, not shown) and far-red (c-Fos) channels, with a Gamma value of 1. The images were then overlayed, and the c-Fos+ cells were manually counted. Similarly, the GFAP+ cells were manually counted, as shown in FIG. 15c and FIG. 17, by applying a Brightness (White) threshold of 5686 and a Gamma value of 1 for both the DAPI (nuclei) and far-red (GFAP, purple) channels.
Adjacent sections were stained separately with an anti-GFAP antibody to examine astrocytic activation. […]

[3] = test system: brain tissue; experiment: Safety analysis, hematoxylin staining of brain sections; details: RAID approach, FUS+AADC-IKVAV+L-DOPA, behavior study
Procedure: Additionally, the brain sections stained for GFAP were imaged using a 4× objective in DAPI (nuclei) and far-red (GFAP) channels. Three square areas were then selected in both the left and right striatum respectively, each with 3×3 binning, for imaging with a 40× objective to quantify GFAP+ cells. Safety analysis—To investigate potential lesions resulting from the use of FUS-BBBO in the RAID protocol, hematoxylin staining was performed (n=11 mice for FUS alone+L-DOPA group and n=14 mice for FUS+AADC-IKVAV (SEQ ID NO: 23)+L-DOPA group) on the adjacent sections of each representative section used for c-Fos staining, which was associated with behavior analysis as shown in FIG. 11. Hematoxylin staining was conducted according to the following steps: […] (5) This was followed by a 3-minute wash in H2O; (6) A 20-second soak in Bluing Reagent (H&E Staining Kit, Abcam ab245880) was carried out; (7) Another 3-minute wash in H2O followed; […]

Molecule | reduction in clockwise rotations after L-DOPA ([1]; week 1, FUS-alone group) [%] | reduction in counter-clockwise (ipsilateral) rotations after L-DOPA ([1]; week 1, control mice receiving FUS alone) | clockwise rotations after L-DOPA ([1]; week two, FUS-alone control group) | numbers of GFAP+ astrocytes in targeted area vs contralateral site [2] | tissue damage or bleeding by hematoxylin staining [3]
N[C@@H](Cc1ccc(O)c(O)c1)C(=O)O [L-DOPA, reference compound] | 53±18 | not observed | no significant effects | – | –
B1 | – | – | – | did not affect | didn't cause observable tissue damage or bleeding
